# Patent US20030022250A1, “Functional IgE test methods and compositions” (priority 2001, published 2003)
# Tested on: RBL SX-38 cells
# Assay: [3H]5-HT release (degranulation) from labeled and sensitized RBL SX-38 cells
# Format: cell-based, rat
# Details: pre-incubation 5 minutes at 37 C; 0.1 mM NECA, 30% D2O or 5 μg/ml cytochalasin B
# Experimental: As specifically exemplified herein, we have labeled RBL SX-38 cells with ^3H-serotonin (5HT). A fraction of the tritiated 5-HT incorporated into cellular granules is released from the cells (in the process of degranulation) following their activation. The percentage of labeled 5-HT release, where the label is a radioactive moiety, is calculated as follows: disintegrations per minute (dpm) in the supernatant divided by the sum of the dpm in the supernatant plus the dpm in the residual cells. This formula is as follows:
# % release =100×(dpm in the supematant)/(dpm in the supernatant+dpm in the residual cells).
# For each experiment, a positive control, activation of the cells with anti-IgE is determined. The % release with anti-IgE (usually about 30-60% of the total 5-HT) is set at 100%. Degranulation with a given allergen is then expressed as a percent of that seen with anti-IgE. […]
# Triggering is initiated by adding 5 μl of allergenic extracts (diluted to the appropriate concentration) or goat anti-human-IgE (3 μg/ml). […] Non-specific background release is assessed using negative controls, which have 5 μl PIPES buffer added instead of extract or anti-IgE. After 45 minutes, the plates are then removed and the tritium content of a 50 μl aliquot from the supernatant of each sample, in 5 ml of scintillation fluid, is determined. […]
compound,measurement,value
"CCNC(=O)[C@H]1O[C@@H](n2cnc3c(N)ncnc32)[C@H](O)[C@@H]1O [NECA, N-ethylcarboxamido adenosine]",effect on threshold for triggering by allergen,lowers the threshold for triggering
